# According to patent US20240209456A1, “METHODS AND COMPOSITIONS RELATED TO CELL-CYCLE RNA's” (BETH ISRAEL DEACONESS MEDICAL CENTER, priority 2021, published 2024):
# “Also recorded” adds a separate entry of the source.
# What was measured:
# Format in all cases: binding
# H2A.Z = target: T1, H2A.Z (Homo sapiens, UniProt P0C0S5); assay: RNA electrophoresis mobility shift assay (REMSA) with H2A.Z protein; conditions: in vitro, 32P-labeled oligonucleotide, full length purified H2A.Z
# T1 construct: 5 μg of full length purified H2A.Z (Abcam) and TIP60 (SignalChem) proteins were incubated; purchased Abcam
# Experimental: (§1) RNA oligonucleotides (15 pmol) were end-labeled with [γ-^32P] ATP (Perkin Elmer) and T4 polynucleotide kinase (New England Biolabs). Reactions were incubated at 37° C. for 1 h and then passed through G-25 spin columns (GE Healthcare) according to the manufacturer's instructions to remove unincorporated radioactivity. Labeled samples were gel-purified on 10% polyacrylamide gels. Binding reactions were carried out in 10 μL volumes in the following buffer: 5 mM Tris pH 7.4, 5 mM MgCl2, 1 mM DTT, 3% v/v glycerol, 100 mM NaCl. 5 μg of full length purified H2A.Z (Abcam) and TIP60 (SignalChem) proteins were incubated with 1.1 nM of ^32P-labeled ss RNAs. All reactions were assembled on ice and then incubated at room temperature for 30 min. Samples were loaded onto 6% native polyacrylamide gels (0.5×TBE) at 4° C. for 3 h at 140 V. Various concentrations (1 μM-10 mM) of H2A.Z and K7 acetylated H2A.Z peptides (AnaSpec) were incubated with a fixed amount of probe in 50 mM Tris-HCl pH 7.5, 100 mM NaCl, 0.4 mM EDTA, and 40 U/ml RNasin, 1 mM DTT, 50% glycerol in a final volume of 10 μL. Thereafter, 1 μl glutaraldehyde (0.2% final concentration) was added into the mixture and incubated at room temperature for 15 minutes. Samples were loaded onto 10% native polyacrylamide gels (0.5×TBE) at 4° C. for 3 h at 170 V. All gels were dried upon fixation with Methanol and Acetic Acid and exposed to X-ray film.
# TIP60 = TIP60 (Homo sapiens, UniProt Q92993); assay: REMSA/EMSA with TIP60 protein; design: 5 μg of full length purified H2A.Z (Abcam) and TIP60 (SignalChem) proteins were incubated; purchased SignalChem; conditions: in vitro, 32P-labeled oligonucleotide, purified TIP60; RNA and DNA probes at same molar concentration
# Experimental: as §1
# [1] = target: T2, H2A.Z and K7 acetylated H2A.Z peptides (Homo sapiens, UniProt P0C0S5); assay: REMSA with N-terminal H2A.Z peptides; conditions: in vitro, synthetic peptides
# T2 construct: purchased AnaSpec
# Experimental: as §1
# T1 sequence (P0C0S5 whole entry): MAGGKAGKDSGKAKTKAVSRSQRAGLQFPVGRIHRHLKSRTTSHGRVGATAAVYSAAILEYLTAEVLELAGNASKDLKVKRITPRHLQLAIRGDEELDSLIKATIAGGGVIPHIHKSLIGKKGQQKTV
# Chain of TIP60 (Q92993 whole entry): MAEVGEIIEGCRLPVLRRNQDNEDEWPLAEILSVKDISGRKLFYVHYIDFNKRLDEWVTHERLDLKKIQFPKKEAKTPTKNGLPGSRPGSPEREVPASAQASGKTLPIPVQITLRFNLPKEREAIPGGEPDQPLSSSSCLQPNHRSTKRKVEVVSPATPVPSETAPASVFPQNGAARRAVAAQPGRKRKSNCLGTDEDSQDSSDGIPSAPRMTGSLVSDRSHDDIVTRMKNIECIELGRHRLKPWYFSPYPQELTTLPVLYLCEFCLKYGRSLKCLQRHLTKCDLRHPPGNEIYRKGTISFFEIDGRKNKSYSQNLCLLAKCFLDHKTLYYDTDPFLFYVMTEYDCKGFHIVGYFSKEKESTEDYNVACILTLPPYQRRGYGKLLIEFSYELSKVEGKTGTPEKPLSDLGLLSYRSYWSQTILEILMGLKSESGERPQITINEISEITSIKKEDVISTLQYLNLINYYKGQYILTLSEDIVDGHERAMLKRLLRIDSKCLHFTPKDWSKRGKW
# T2 sequence (P0C0S5 2-21): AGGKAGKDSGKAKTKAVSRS
Substance,RNP complex formation with H2A.Z (H2A.Z),complex formation with TIP60 (TIP60),"shift in migration with H2A.Z N-terminal peptides, unmodified and acetylated at lysine 7 [1]"
"UR1: unrelated RNA oligonucleotide lacking the common binding motif, SEQ ID NO 87 (GCGCCCUGCAGCCUGGUACGCG; RNA, backbone not given here; further chemistry not fully specified)",did not form detectable RNPs complexes,did not form detectable RNPs complexes,–
"DM3: DNA oligonucleotide duplex of the same primary sequence as UR3 (sense GGCGTGGCGGTGGGCGCGCAGT; antisense ACTGCGCGCCCACCGCCACGCC; DNA, backbone and methylation of C not given here; further chemistry not fully specified)",–,weak complex formation,–
"Mut RM9A: mutated RM9A abolishing the predicted stem-loop structure, SEQ ID NO 86 (UUAUGUUAUUGUUUAUAUACGU; RNA, backbone not given here; further chemistry not fully specified)",–,did change the strength and the mobility of the RNA-TIP60 complexes,–
"DM2: DNA oligonucleotide duplex of the same primary sequence as UR2 (sense CTTTCCTCCACTCTCCCTGGGA; antisense TCCCAGGGAGAGTGGAGGAAAG; DNA, backbone and methylation of C not given here; further chemistry not fully specified)",–,weak complex formation,–
"UR3: unrelated RNA oligonucleotide lacking the common binding motif, SEQ ID NO 89 (GCCCUUUCCCCAGCCUUAGCGA; RNA, backbone not given here; further chemistry not fully specified)",did not form detectable RNPs complexes,did not form detectable RNPs complexes,–
"DM9A: double-stranded DNA oligonucleotide of the same primary sequence as RM9A (sense GCCCTTTCCCCAGCCTTAGCGA; antisense TCGCTAAGGCTGGGGAAAGGGC; DNA, backbone and methylation of C not given here; further chemistry not fully specified)",–,stronger TIP60 binding to the RNAs than to the DNA,–
"UR2: unrelated RNA oligonucleotide lacking the common binding motif, SEQ ID NO 88 (CUUUCCUCCACUCUCCCUGGGA; RNA, backbone not given here; further chemistry not fully specified)",did not form detectable RNPs complexes,did not form detectable RNPs complexes,–
"RM9A: RNA oligonucleotide of common binding motif 9 in c-MYC SPEARs, 5′-GGCGUGGCGGUGGGCGCGCAGU-3′, SEQ ID NO 85 (GGCGUGGCGGUGGGCGCGCAGU; RNA, backbone not given here; further chemistry not fully specified)",able to form RNPs,able to form RNPs; also recorded: stronger TIP60 binding to the RNAs than to the DNA,A shift in migration was observed
